Like-named read-outs stand apart in the source and are kept apart here. Positions of bridges follow the written chain, without caps; N, C: chain ends. Non-standard residues stand in square brackets, D forms with d. Residues, ends and D or L forms follow the SMILES beside them. Trp(5-OH) = N[C@@H](Cc1c[nH]c2ccc(O)cc12)C(=O)O; NMeF = CN[C@@H](Cc1ccccc1)C(=O)O; Chg = N[C@H](C(=O)O)C1CCCCC1; NMeNle = CCCC[C@H](NC)C(=O)O; Dap = NC[C@H](N)C(=O)O; Sar = CNCC(=O)O
Legend:
[1] = molecular target: T1, LK35.2-hPD-L1 cells / PE-labeled PD-1-Ig (Homo sapiens, UniProt Q9NZQ7); experiment: LK35.2-hPD-L1 cell binding high-content screening assay; type: cell-based; settings: cell line of CBA not given (LK35.2-hPD-L1 or 293T-hPD-L1)
T1 construct: expressed in transfected cells; host or cells: LK35.2 mouse B cell line
T1 sequence (Q9NZQ7 19-290): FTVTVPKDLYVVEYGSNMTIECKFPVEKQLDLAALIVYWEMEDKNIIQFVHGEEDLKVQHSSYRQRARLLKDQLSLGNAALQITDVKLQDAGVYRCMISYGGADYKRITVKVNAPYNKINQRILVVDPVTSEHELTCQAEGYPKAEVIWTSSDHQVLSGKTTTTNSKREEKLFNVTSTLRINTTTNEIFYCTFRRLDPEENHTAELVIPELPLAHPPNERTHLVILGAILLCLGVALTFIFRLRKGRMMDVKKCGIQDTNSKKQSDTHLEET
Summary of the method: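 Readout: high-content imaging of PE-PD-1-Ig bound to LK35.2-hPD-L1 cells. Cells plated overnight (RPMI/10% FCS); compound + 1 nM PE-PD-1-Ig, 1 h, 37 °C; 3× dPBS wash before imaging.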

Human PD-L1/PD-1 = molecular target: T2, Human PD-L1/PD-1 (Homo sapiens, UniProt Q9NZQ7); experiment: HTRF PD-1-Ig/PD-L1-His binding assay (human PD-L1)
T2 construct: made in house; host or cells: HEK293T
T2 sequence (Q9NZQ7 with tags, fused parts or gaps): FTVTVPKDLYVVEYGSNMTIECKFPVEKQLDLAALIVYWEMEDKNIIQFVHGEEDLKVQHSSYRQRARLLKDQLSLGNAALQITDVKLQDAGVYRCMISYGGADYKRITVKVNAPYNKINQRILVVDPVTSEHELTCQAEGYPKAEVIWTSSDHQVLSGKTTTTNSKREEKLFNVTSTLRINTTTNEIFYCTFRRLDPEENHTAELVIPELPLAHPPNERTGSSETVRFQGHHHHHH
Summary of the method: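 Interaction of Fc-tagged soluble PD-1 with His-tagged soluble PD-L1 is monitored by time-resolved FRET. Donor is europium cryptate anti-Ig (1 nM final) and acceptor is APC anti-His (20 nM final). Assay buffer is dPBS with 0.1% BSA and 0.05% Tween-20.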

[2] = cluster symbol, read-out: CBA IC50 cluster
[3] = cluster symbol, read-out: HTRF IC50 cluster

Row | SMILES | IC50 ([1]; read-out: CBA IC50 value) [nM] | IC50 (Human PD-L1/PD-1; read-out: HTRF IC50 value) [nM] | IC50 [1, 2] [nM] | IC50 (Human PD-L1/PD-1; [3]) [nM]
1 | CCCC[C@H]1C(=O)N(C)CC(=O)N[C@@H](CC(=O)O)C(=O)N[C@@H](C(C)C)C(=O)N(C)[C@@H](Cc2ccccc2)C(=O)N[C@@H](Cc2c[nH]c3ccc(O)cc23)C(=O)N(C)CC(=O)N[C@@H](Cc2c[nH]c3ccccc23)C(=O)N[C@@H](Cc2ccc(O)cc2)C(=O)N[C@@H](CC(C)C)C(=O)N[C@H](C(=O)NCC(N)=O)CSCC(=O)N[C@@H](Cc2ccccc2)C(=O)N(C)[C@@H](Cc2ccccc2)C(=O)N1C [Example 3148] ({CH2CO}-F[NMeF][NMeNle][Sar]DV[NMeF][Trp(5-OH)][Sar]WYLCG-NH2; thioether N-13) |  |  | 4.78 to 72.9 | 6.76 to 30.3
2 | CCCC[C@H]1C(=O)N(C)CC(=O)N[C@@H](CC(=O)O)C(=O)N[C@@H](CCC(=O)O)C(=O)N(C)[C@@H](Cc2ccccc2)C(=O)N[C@@H](Cc2ccc(O)cc2)C(=O)N(C)CC(=O)N[C@@H](Cc2c[nH]c3ccccc23)C(=O)N[C@@H](Cc2ccc(O)cc2)C(=O)N[C@@H](CC(C)C)C(=O)N[C@H](C(=O)NCC(N)=O)CSCC(=O)N[C@@H](Cc2ccccc2)C(=O)N(C)[C@@H](Cc2ccccc2)C(=O)N1C [Example 3150] (HELM PEPTIDE1{[O=C(C[*:3])[*:2]].F.[meF].[CCCC[C@@H](C(=O)[*:2])N(C)[*:1]].[Sar].D.E.[meF].Y.[Sar].W.Y.L.C.G.[am]}$PEPTIDE1,PEPTIDE1,1:R3-14:R3$$$V2.0) |  |  | > 74.3 | > 30.5
3 | CCCC[C@H]1C(=O)N(C)CC(=O)N[C@@H](CC(=O)O)C(=O)N[C@@H](CCCNC(=N)N)C(=O)N(C)[C@@H](Cc2ccccc2)C(=O)N[C@@H](Cc2ccc(O)cc2)C(=O)N(C)CC(=O)N[C@@H](Cc2c[nH]c3ccccc23)C(=O)N[C@@H](Cc2ccc(O)cc2)C(=O)N[C@@H](CC(C)C)C(=O)N[C@H](C(=O)NCC(N)=O)CSCC(=O)N[C@@H](Cc2ccccc2)C(=O)N(C)[C@@H](Cc2ccccc2)C(=O)N1C [Example 3151] (HELM PEPTIDE1{[O=C(C[*:3])[*:2]].F.[meF].[CCCC[C@@H](C(=O)[*:2])N(C)[*:1]].[Sar].D.R.[meF].Y.[Sar].W.Y.L.C.G.[am]}$PEPTIDE1,PEPTIDE1,1:R3-14:R3$$$V2.0) |  |  | > 74.3 | > 30.5
4 | CCCC[C@H]1C(=O)N(C)CC(=O)N[C@@H](CC(=O)O)C(=O)N[C@@H](C2CCCCC2)C(=O)N(C)[C@@H](Cc2ccccc2)C(=O)N[C@@H](Cc2ccc(O)cc2)C(=O)N(C)CC(=O)N[C@@H](Cc2c[nH]c3ccccc23)C(=O)N[C@@H](Cc2ccc(O)cc2)C(=O)N[C@@H](CC(C)C)C(=O)N[C@H](C(=O)NCC(N)=O)CSCC(=O)N[C@@H](Cc2ccccc2)C(=O)N(C)[C@@H](Cc2ccccc2)C(=O)N1C [Example 3158] ({CH2CO}-F[NMeF][NMeNle][Sar]D[Chg][NMeF]Y[Sar]WYLCG-NH2; thioether N-13) |  |  | 4.78 to 72.9 | > 30.5
5 | CCCC[C@H]1C(=O)N(C)CC(=O)N[C@@H](CC(=O)O)C(=O)N[C@@H](CC2CCCCC2)C(=O)N(C)[C@@H](Cc2ccccc2)C(=O)N[C@@H](Cc2ccc(O)cc2)C(=O)N(C)CC(=O)N[C@@H](Cc2c[nH]c3ccccc23)C(=O)N[C@@H](Cc2ccc(O)cc2)C(=O)N[C@@H](CC(C)C)C(=O)N[C@H](C(=O)NCC(N)=O)CSCC(=O)N[C@@H](Cc2ccccc2)C(=O)N(C)[C@@H](Cc2ccccc2)C(=O)N1C [Example 3159] (HELM PEPTIDE1{[O=C(C[*:3])[*:2]].F.[meF].[CCCC[C@@H](C(=O)[*:2])N(C)[*:1]].[Sar].D.[Cha].[meF].Y.[Sar].W.Y.L.C.G.[am]}$PEPTIDE1,PEPTIDE1,1:R3-14:R3$$$V2.0) |  |  | > 74.3 | > 30.5
6 | CCCC[C@H]1C(=O)N(C)CC(=O)N[C@@H](CC(=O)O)C(=O)N[C@@H](C(C)C)C(=O)N(C)[C@@H](Cc2ccccc2)C(=O)N[C@@H](Cc2ccc(O)cc2)C(=O)N(C)CC(=O)N[C@@H](Cc2c[nH]c3ccccc23)C(=O)N[C@@H](Cc2ccc(O)cc2)C(=O)N[C@@H](CC(C)C)C(=O)N[C@H](C(=O)NCC(N)=O)CC=CC(=O)N[C@@H](Cc2ccccc2)C(=O)N(C)[C@@H](Cc2ccccc2)C(=O)N1C [Example 3160] |  |  | > 74.3 | > 30.5

Second part, the molecule after the results:

Row | IC50 ([1]; read-out: CBA IC50 value) [nM] | IC50 (Human PD-L1/PD-1; read-out: HTRF IC50 value) [nM] | IC50 [1, 2] [nM] | IC50 (Human PD-L1/PD-1; [3]) [nM] | SMILES
7 | 1730 | 750 |  |  | CCCC[C@H]1C(=O)N(C)CC(=O)N[C@@H](CC(=O)O)C(=O)N[C@@H](C(C)C)C(=O)N(C)[C@@H](Cc2ccccc2)C(=O)N[C@@H](Cc2ccc(O)cc2)C(=O)N(C)CC(=O)N[C@@H](Cc2c[nH]c3ccc(O)cc23)C(=O)N[C@@H](Cc2ccc(O)cc2)C(=O)N[C@@H](CC(C)C)C(=O)N[C@H](C(=O)NCC(N)=O)CSCC(=O)N[C@@H](Cc2ccccc2)C(=O)N(C)[C@@H](Cc2ccccc2)C(=O)N1C [Example 3147] ({CH2CO}-F[NMeF][NMeNle][Sar]DV[NMeF]Y[Sar][Trp(5-OH)]YLCG-NH2; thioether N-13)
8 | 8.86 | 30.3 |  |  | CCCC[C@H]1C(=O)N(C)CC(=O)N[C@@H](CC(=O)O)C(=O)N[C@@H]([C@@H](C)CC)C(=O)N(C)[C@@H](Cc2ccccc2)C(=O)N[C@@H](Cc2ccc(O)cc2)C(=O)N(C)CC(=O)N[C@@H](Cc2c[nH]c3ccccc23)C(=O)N[C@@H](Cc2ccc(O)cc2)C(=O)N[C@@H](CC(C)C)C(=O)N[C@H](C(=O)NCC(N)=O)CSCC(=O)N[C@@H](Cc2ccccc2)C(=O)N(C)[C@@H](Cc2ccccc2)C(=O)N1C [Example 3149] (HELM PEPTIDE1{[O=C(C[*:3])[*:2]].F.[meF].[CCCC[C@@H](C(=O)[*:2])N(C)[*:1]].[Sar].D.I.[meF].Y.[Sar].W.Y.L.C.G.[am]}$PEPTIDE1,PEPTIDE1,1:R3-14:R3$$$V2.0)
9 |  |  | 4.78 to 72.9 | 6.76 to 30.3 | CCCC[C@H]1C(=O)N(C)CC(=O)N[C@@H](CN)C(=O)N[C@@H](C(C)C)C(=O)N(C)[C@@H](Cc2ccccc2)C(=O)N[C@@H](Cc2ccc(O)cc2)C(=O)N(C)CC(=O)N[C@@H](Cc2c[nH]c3ccccc23)C(=O)N[C@@H](Cc2ccc(O)cc2)C(=O)N[C@@H](CC(C)C)C(=O)N[C@H](C(=O)NCC(N)=O)CSCC(=O)N[C@@H](Cc2ccccc2)C(=O)N(C)[C@@H](Cc2ccccc2)C(=O)N1C [Example 3152] ({CH2CO}-F[NMeF][NMeNle][Sar][Dap]V[NMeF]Y[Sar]WYLCG-NH2; thioether N-13)
10 |  |  | 4.78 to 72.9 | 6.76 to 30.3 | CCCC[C@H]1C(=O)N(C)CC(=O)N[C@@H](CCN)C(=O)N[C@@H](C(C)C)C(=O)N(C)[C@@H](Cc2ccccc2)C(=O)N[C@@H](Cc2ccc(O)cc2)C(=O)N(C)CC(=O)N[C@@H](Cc2c[nH]c3ccccc23)C(=O)N[C@@H](Cc2ccc(O)cc2)C(=O)N[C@@H](CC(C)C)C(=O)N[C@H](C(=O)NCC(N)=O)CSCC(=O)N[C@@H](Cc2ccccc2)C(=O)N(C)[C@@H](Cc2ccccc2)C(=O)N1C [Example 3153] (HELM PEPTIDE1{[O=C(C[*:3])[*:2]].F.[meF].[CCCC[C@@H](C(=O)[*:2])N(C)[*:1]].[Sar].[Dab].V.[meF].Y.[Sar].W.Y.L.C.G.[am]}$PEPTIDE1,PEPTIDE1,1:R3-14:R3$$$V2.0)
11 | 18.4 | 230 |  |  | CCCC[C@H]1C(=O)N(C)CC(=O)N[C@@H](Cc2ccc(O)cc2)C(=O)N[C@@H](C(C)C)C(=O)N(C)[C@@H](Cc2ccccc2)C(=O)N[C@@H](Cc2ccc(O)cc2)C(=O)N(C)CC(=O)N[C@@H](Cc2c[nH]c3ccccc23)C(=O)N[C@@H](Cc2ccc(O)cc2)C(=O)N[C@@H](CC(C)C)C(=O)N[C@H](C(=O)NCC(N)=O)CSCC(=O)N[C@@H](Cc2ccccc2)C(=O)N(C)[C@@H](Cc2ccccc2)C(=O)N1C [Example 3154] (HELM PEPTIDE1{[O=C(C[*:3])[*:2]].F.[meF].[CCCC[C@@H](C(=O)[*:2])N(C)[*:1]].[Sar].Y.V.[meF].Y.[Sar].W.Y.L.C.G.[am]}$PEPTIDE1,PEPTIDE1,1:R3-14:R3$$$V2.0)
12 |  |  | > 74.3 | > 30.5 | CCCC[C@H]1C(=O)N(C)CC(=O)N[C@@H](CC(=O)O)C(=O)N[C@@H](COC)C(=O)N(C)[C@@H](Cc2ccccc2)C(=O)N[C@@H](Cc2ccc(O)cc2)C(=O)N(C)CC(=O)N[C@@H](Cc2c[nH]c3ccccc23)C(=O)N[C@@H](Cc2ccc(O)cc2)C(=O)N[C@@H](CC(C)C)C(=O)N[C@H](C(=O)NCC(N)=O)CSCC(=O)N[C@@H](Cc2ccccc2)C(=O)N(C)[C@@H](Cc2ccccc2)C(=O)N1C [Example 3155] ({CH2CO}-F[NMeF][NMeNle][Sar]DS(Me)[NMeF]Y[Sar]WYLCG-NH2; thioether N-13)
13 | 1870 | 439 |  |  | CCCC[C@H]1C(=O)N(C)CC(=O)N[C@@H](CC(=O)O)C(=O)N[C@@H](CO)C(=O)N(C)[C@@H](Cc2ccccc2)C(=O)N[C@@H](Cc2ccc(O)cc2)C(=O)N(C)CC(=O)N[C@@H](Cc2c[nH]c3ccccc23)C(=O)N[C@@H](Cc2ccc(O)cc2)C(=O)N[C@@H](CC(C)C)C(=O)N[C@H](C(=O)NCC(N)=O)CSCC(=O)N[C@@H](Cc2ccccc2)C(=O)N(C)[C@@H](Cc2ccccc2)C(=O)N1C [Example 3156] (HELM PEPTIDE1{[O=C(C[*:3])[*:2]].F.[meF].[CCCC[C@@H](C(=O)[*:2])N(C)[*:1]].[Sar].D.S.[meF].Y.[Sar].W.Y.L.C.G.[am]}$PEPTIDE1,PEPTIDE1,1:R3-14:R3$$$V2.0)
14 |  |  | 4.78 to 72.9 | 6.76 to 30.3 | CCCC[C@H]1C(=O)N(C)CC(=O)N[C@@H](CC(=O)O)C(=O)N[C@@H]([C@@H](C)OC)C(=O)N(C)[C@@H](Cc2ccccc2)C(=O)N[C@@H](Cc2ccc(O)cc2)C(=O)N(C)CC(=O)N[C@@H](Cc2c[nH]c3ccccc23)C(=O)N[C@@H](Cc2ccc(O)cc2)C(=O)N[C@@H](CC(C)C)C(=O)N[C@H](C(=O)NCC(N)=O)CSCC(=O)N[C@@H](Cc2ccccc2)C(=O)N(C)[C@@H](Cc2ccccc2)C(=O)N1C [Example 3157] ({CH2CO}-F[NMeF][NMeNle][Sar]DT(Me)[NMeF]Y[Sar]WYLCG-NH2; thioether N-13)

Reference: US9850283B2, “Macrocyclic inhibitors of the PD-1/PD-L1 and CD80(B7-1)/PD-L1 protein/protein interactions” (BRISTOL-MYERS SQUIBB COMPANY, priority 2013, dated 2017)
